Where a name gives a salt, the structure may show the parent alone. Read-outs that look alike come from different tables or passages of the source.

The target of test [1] is T1, CCK receptor (pancreas) (Rattus norvegicus, UniProt P30551).
T1 construct: The whole pancreas was dissected free of fat tissue and was homogenized; from tissue; host or cells: rat pancreas membranes (Sprague-Dawley)
T1 sequence (P30551 1-444): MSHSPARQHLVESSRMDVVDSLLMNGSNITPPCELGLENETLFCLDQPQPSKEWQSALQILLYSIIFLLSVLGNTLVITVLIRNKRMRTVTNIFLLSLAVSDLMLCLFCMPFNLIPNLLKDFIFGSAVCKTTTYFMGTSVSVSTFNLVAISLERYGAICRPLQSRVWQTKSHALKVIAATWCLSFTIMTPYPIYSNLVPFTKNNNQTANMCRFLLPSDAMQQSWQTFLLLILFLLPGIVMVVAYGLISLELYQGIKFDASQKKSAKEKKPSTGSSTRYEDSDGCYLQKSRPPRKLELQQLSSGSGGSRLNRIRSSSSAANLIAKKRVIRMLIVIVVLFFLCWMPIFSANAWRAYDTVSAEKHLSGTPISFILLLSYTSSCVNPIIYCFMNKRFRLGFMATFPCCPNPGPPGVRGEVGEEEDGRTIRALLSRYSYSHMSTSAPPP
Nature of the test: CCK Receptor Binding (Pancreas): inhibition of ^125 I-CCK-33 binding. Also noted: species or system Male Sprague-Dawley rats. As to conditions: rat pancreas membranes, ^125 I-CCK-33, 37° C., 30 minutes. The gist of the method: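 Rat (male Sprague-Dawley) pancreatic membranes in 50 mM Tris HCl pH 7.7 with DTT, bacitracin, PMSF and o-phenanthroline; ^125I-Bolton Hunter-labelled CCK-33 as radioligand. Incubation 30 min at 37° C, separation by centrifugation, pellet gamma-counted; Scatchard analysis by diluting ^125I-CCK-33 with increasing CCK-33.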

For test [2], the target named is T2, CCK receptor (brain, cerebral cortex) (Cavia porcellus, UniProt H0VZC5).
T2 construct: Cerebral cortex was dissected and used as a receptor source; from tissue; host or cells: guinea pig cerebral cortex membranes (male Hartley)
T2 sequence (H0VZC5 1-426): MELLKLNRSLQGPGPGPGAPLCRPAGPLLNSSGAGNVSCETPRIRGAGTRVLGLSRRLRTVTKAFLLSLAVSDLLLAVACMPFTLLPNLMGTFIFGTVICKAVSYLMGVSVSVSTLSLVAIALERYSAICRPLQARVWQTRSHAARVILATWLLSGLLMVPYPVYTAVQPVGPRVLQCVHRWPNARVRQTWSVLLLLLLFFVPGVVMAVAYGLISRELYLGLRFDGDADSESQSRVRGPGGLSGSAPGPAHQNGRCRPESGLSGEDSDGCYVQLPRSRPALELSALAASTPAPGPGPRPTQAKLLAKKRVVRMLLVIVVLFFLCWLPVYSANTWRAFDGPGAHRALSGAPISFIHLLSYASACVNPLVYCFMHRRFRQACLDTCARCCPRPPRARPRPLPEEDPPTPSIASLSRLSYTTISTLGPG
Kind of test: biochemical. It counts as binding, Male Hartley guinea pigs. The gist of the method: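 Guinea pig cerebral cortex homogenate as receptor source, with radiolabeled CCK-33 in HEPES buffer containing MgCl2, bacitracin, EGTA and 0.4% BSA. Incubation 2 h at 25°C; bound ligand pelleted by centrifugation and gamma-counted.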

The target in test [3] is T3, Gastrin receptor (gastric glands) (Cavia porcellus, UniProt H0VZC5).
T3 construct: The washed guinea pig gastric glands prepared as above were resuspended; from tissue; host or cells: guinea pig gastric mucosal glands (male Hartley)
T3 sequence (H0VZC5 1-426): T2 sequence (H0VZC5 1-426)
Kind of test: Gastrin Receptor Binding in Guinea Pig Gastric Glands. Also on record: species or system guinea pig (male Hartley). As to conditions: 25° C., 30 minutes.

The mark [4] stands for this setting: IC50 ^125 I-CCK Brain, guinea pig cerebral cortex, ^125 I-CCK-33, 25° C., 2 hours.
The mark [5] stands for this setting: IC50 ^125 I-Gastrin Gastric Glands.
[6] abbreviates: read-out: IC50 ^125 I-CCK Pancreas.
The mark [7] stands for this setting: guinea pig cerebral cortex, ^125 I-CCK-33, 25° C., 2 hours; read-out: IC50 ^125 I-CCK Brain.
Where [8] appears, read: ^125 I-gastrin, read-out: IC50 ^125 I-Gastrin Gastric Glands.

As for `COc1cccc(NC(=O)NC2N=C(c3ccccc3)c3ccccc3N(CC(=O)N3CCCC3)C2=O)c1` (stereo not drawn) [Example 284, 1-{[3-[(((3-Methoxyphenyl)amino)carbonyl)amino]-2,3-dihydro-2-oxo-5-phenyl-1H-1,4-benzodiazepin-1-yl]acetyl}pyrrolidine], the results for the 50% inhibitory concentration (IC50) in test [1] (IC50 ^125 I-CCK Pancreas), in test [2] (setting [4]) and in test [3] (setting [5]) were 17 nM, 0.34 nM and 0.5 nM, respectively.
Turning to `CN1C(=O)C(NC(=O)Nc2ccccc2)N=C(c2ccccc2)c2ccccc21` (stereo not drawn) [Example 250, N-(2,3-Dihydro-1-methyl-2-oxo-5-phenyl-1H-1,4-benzodiazepin-3-yl)-N'-phenylurea], the figures for the IC50 in test [1] (setting [6]), in test [2] (setting [7]) and in test [3] (setting [8]) were 8.3 nM, 32 nM and 9 nM, respectively.
As to `CN1C(=O)C(C(O)c2ccccc2)N=C(c2ccccc2)c2ccccc21` (racemic) [Example 51, 1,3-Dihydro-3(RS)-(1-hydroxy-1-phenyl)methyl-1-methyl-5-phenyl-2H-1,4-benzodiazepin-2-one], the IC50 in test [1] (IC50 ^125 I-CCK Pancreas) was above 100000 nM; in test [2] (setting [7]), 32000 nM; in test [3] (setting [8]), 25000 nM.
Regarding `CCN1C(=O)[C@@H](Cc2c[nH]c3ccccc23)N=C(c2ccccc2F)c2ccccc21` [Example 36, 1,3-Dihydro-1-ethyl-5-(2-fluorophenyl)-3(R)-(3'-indolyl)methyl-2H-1,4-benzodiazepin-2-one], the figures for the IC50 in test [1] (IC50 ^125 I-CCK Pancreas), in test [2] (setting [4]) and in test [3] (setting [5]) were 300 nM, 30000 nM and above 100000 nM, respectively.
In the case of `CN1C(=O)C(NC(=O)Nc2ccccc2Cl)N=C(c2ccccc2)c2ccccc21` (stereo not drawn) [Example 254, N-(2-Chlorophenyl)-N'-(2,3-dihydro-1-methyl-2-oxo-5-phenyl-1H-1,4-benzodiazepin-3-yl)-urea], the IC50 in test [1] (IC50 ^125 I-CCK Pancreas) was determined as 0.9 nM; in test [2] (setting [7]), 320 nM; in test [3] (setting [8]), 110 nM.
Regarding `O=C(NC1N=C(c2ccccc2F)c2ccccc2NC1=O)c1ccc2ccccc2n1` (racemic) [Example 116], the figures for the concentration for half-maximal inhibition (IC50) in test [1] (IC50 ^125 I-CCK Pancreas), in test [2] (setting [7]) and in test [3] (setting [8]) were 300 nM, 80000 nM and above 10000 nM, respectively.
Consider `CC(C)(C)C(=O)OCOC(=O)CN1C(=O)C(NC(=O)c2cc3ccccc3[nH]2)N=C(c2ccccc2)c2ccccc21` (stereo not drawn) [Example 279, 1-Pivaloyloxymethyloxycarbonylmethyl-1,3-dihydro-3-(2-indolecarbonylamino)-5-phenyl-2H-1,4-benzodiazepin-2-one], for which the IC50 in test [1] (IC50 ^125 I-CCK Pancreas) amounted to 11 nM; in test [2] (setting [7]), 310 nM; in test [3] (setting [8]), 600 nM.
As to `O=C(OC1N=C(c2ccccc2F)c2ccccc2N(C(=O)c2ccc(Cl)cc2)C1=O)c1ccc(Cl)cc1` (racemic) [Example 178, 1-(4-Chlorophenyl)carbonyl-1,3-dihydro-5-(2-fluorophenyl)-3(RS)-(4-chlorophenyl)carbonyloxy-2H-1,4-benzodiazepin-2-one], the half-inhibitory concentration (IC50) was 4900 nM in test [1] (IC50 ^125 I-CCK Pancreas), above 100000 nM in test [2] (setting [7]) and above 100000 nM in test [3] (setting [8]).
On to `CN1C(=O)C(NC(=O)NC(C)(C)C)N=C(c2ccccc2)c2ccccc21` (stereo not drawn) [Example 260, N-(2,3-Dihydro-1-methyl-2-oxo-5-phenyl-1H-1,4-benzodiazepin-3-yl)-N'-(1,1-dimethylethyl)-urea], for which the figures for the IC50 in test [1] (setting [6]), in test [2] (setting [4]) and in test [3] (setting [5]) were 6800 nM, 38000 nM and above 1000 nM, respectively.
With `CN1C(=O)[C@H](NC(=O)Nc2cccc(Cl)c2)N=C(c2ccccc2)c2ccccc21` [Example 296, (R)-N-(2,3-Dihydro-1-methyl-2-oxo-5-phenyl-1H-1,4-benzodiazepin-3-yl)-N'-(3-chloroohenyl)-urea], the IC50 in test [1] (setting [6]) turned out to be 290 nM; in test [2] (setting [4]), 7.5 nM; in test [3] (setting [5]) it was 2.2 nM.
For the molecule `CC(C)CC(N)C(=O)N1CC(CC2N=C(c3ccccc3)c3ccccc3NC2=O)c2ccccc21` (stereo not drawn) [Example 227, 1-(2-Amino-4-methyl-1-oxopentyl)-3-((2,3-dihydro-2-oxo-5-phenyl-1H-1,4-benzodiazepin-3-yl)methyl)-2,3-dihydro-1H-indole hydrochloride], the results for the IC50 in test [1] (IC50 ^125 I-CCK Pancreas), in test [2] (setting [4]) and in test [3] (setting [5]) were 6600 nM, 50000 nM and above 100000 nM, respectively.
`CN1C(=O)[C@H](NC(=O)c2ccccc2Cl)N=C(c2ccccc2)c2ccccc21` [Example 151, 3(R)-(+)-3-(2-Chlorobenzoylamino)-1,3-dihydro-1-methyl-5-phenyl-2H-1,4-benzodiazepin-2-one]: the half-maximal inhibitory concentration (IC50) in test [1] (setting [6]) came to 11000 nM; in test [2] (read-out: IC50 ^125 I-CCK Brain; guinea pig cerebral cortex, ^125 I-CCK-33, 25° C., 2 hours), 22000 nM; in test [3] (setting [8]), 7500 nM.
`CN1C(=O)C(C(O)c2cccs2)N=C(c2ccccc2)c2ccccc21` (racemic) [Example 52, 1,3-Dihydro-3(RS)-[1-hydroxy-1-(2-thienyl)]methyl-1-methyl-5-phenyl-2H-1,4-benzodiazepin-2-one]: the IC50 in test [1] (IC50 ^125 I-CCK Pancreas) is above 100000 nM; in test [2] (setting [7]), 33000 nM; in test [3] (setting [8]), 26000 nM.
Turning to `CN1C(=O)[C@@H](NC(=O)C(C)(C)C)N=C(c2ccccc2)c2ccccc21` [Example 193, (S)-N-(2,3-Dihydro-1-methyl-2-oxo-5-phenyl-1H-1,4-benzodiazepin-3-yl]-2,2-dimethylpropanamide], the IC50 in test [1] (setting [6]) was 1600 nM; in test [2] (setting [4]), above 100000 nM; in test [3] (setting [5]), 13000 nM.
For the molecule `CN1C(=O)[C@@H](NC(=O)c2ccc(C(C)(C)C)cc2)N=C(c2ccccc2F)c2ccccc21` [Example 157, 3(S)-(+)-3-(4-t-Butylbenzoylamino)-1,3-dihydro-5-(2-fluorophenyl)-1-methyl-2H-1,4-benzodiazepin-2-one], the IC50 in test [1] (setting [6]) stood at 19 nM; in test [2] (setting [7]), 8000 nM; in test [3] (setting [8]), 2400 nM.
Take `CCOC(=O)C(C)N1C(=O)C(NC(=O)OCc2ccccc2)N=C(c2ccccc2)c2ccccc21` (stereo not drawn) [Example 242]: the IC50 in test [1] (IC50 ^125 I-CCK Pancreas) came to 900 nM; in test [2] (setting [7]), 2300 nM; in test [3] (setting [8]), 870 nM.
With `CCN(CC)C(=O)CN1C(=O)C(NC(=O)Nc2cccc(OC)c2)N=C(c2ccccc2)c2ccccc21` (stereo not drawn) [Example 285, 3-{[((3-Methoxyphenyl)amino)carbonyl)amino]-N,N-diethyl-2,3-dihydro-2-oxo-5-phenyl-1H-1,4-benzodiazepin-1-acetamide], the concentration for half-maximal inhibition (IC50) in test [1] (IC50 ^125 I-CCK Pancreas) was above 100 nM; in test [2] (setting [7]), 0.22 nM; in test [3] (setting [8]), 0.26 nM.
As to `CN1C(=O)[C@H](NC(=O)c2ccccc2I)N=C(c2ccccc2F)c2ccccc21` [Example 169, 3(R)-(+)-1,3-Dihydro-5-(2-fluorophenyl)-3-(2-iodobenzoylamino)-1-methyl-2H-1,4-benzodiazepin-2-one], the IC50 came out at 58000 nM in test [1] (setting [6]), 3800 nM in test [2] (setting [4]) and 4400 nM in test [3] (setting [8]).
For the molecule `CN1C(=O)C(C(O)c2ccsc2)N=C(c2ccccc2)c2ccccc21` (racemic) [Example 49, 1,3-Dihydro-3-(RS)-[1-hydroxy-1-(3-thienyl)]methyl-1-methyl-5-phenyl-2H-1,4-benzodiazepin-2-one], the figures for the IC50 in test [1] (IC50 ^125 I-CCK Pancreas), in test [2] (setting [7]) and in test [3] (setting [8]) were above 100000 nM, 100000 nM and 34000 nM, respectively.
Regarding `CN1C(=O)C(NC(=S)Nc2ccccc2)N=C(c2ccccc2)c2ccccc21` (stereo not drawn) [Example 277, N-(2,3-Dihydro-1-methyl-2-oxo-5-phenyl-1H-1,4-benzodiazepin-3-yl)-N'-phenylthiourea], the results for the IC50 in test [1] (IC50 ^125 I-CCK Pancreas), in test [2] (setting [7]) and in test [3] (setting [8]) were 18 nM, 860 nM and 2600 nM, respectively.
As to `Cc1ccc(S(=O)(=O)NC(=O)NC2N=C(c3ccccc3)c3ccccc3N(C)C2=O)cc1` (stereo not drawn) [Example 248, N-(((2,3-Dihydro-1-methyl-2-oxo-5-phenyl-1H-1,4-benzodiazepin-3-yl)amino)carbonyl)-4-methylbenzenesulfonamide], the figures for the IC50 in test [1] (IC50 ^125 I-CCK Pancreas), in test [2] (setting [7]) and in test [3] (setting [8]) were 20000 nM, 5300 nM and 2200 nM, respectively.

Broadly, the IC50 is the midpoint of a concentration-inhibition curve.
